US9708314B2, “Heterocyclic amide compound” (NISSAN CHEMICAL INDUSTRIES, LTD., priority 2013, dated 2017)

Experiments:
Type in all cases: in vivo
Triticum aestivum = test: Test Example 4: effect on crop by application to foliage (diluvial soil, plastic box); settings: for e (Triticum aestivum) effect on crop: application to foliage, application herbicide amount 320 g/ha
Summary of the method: (§1)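 Plants were grown in sterilized diluvial soil in a greenhouse at 25-30° C for 14 days, then sprayed on stems and leaves with water-diluted emulsion formulation at set rates in g/ha. Weed control and crop injury were scored 3 weeks after treatment on a 0-5 herbicidal-ratio scale, from 0 (≤5%) to 5 (≥90%).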

[1] = test system: directly sowed Oryza sativa; test: as above; settings: for d (directly sowed Oryza sativa) effect on crop: application to foliage, application herbicide amount 320 g/ha
Summary of the method: as §1

Glycine max = test: as above; settings: for c (Glycine max) effect on crop: application to foliage, application herbicide amount 320 g/ha
Summary of the method: as §1

Brassica campestris L. = test: as above; settings: for g (Brassica campestris L.) effect on crop: application to foliage, application herbicide amount 320 g/ha
Summary of the method: as §1

[2] = test system: Beta vulgaris ssp. vulgaris; test: as above; settings: for f (Beta vulgaris ssp. vulgaris) effect on crop: application to foliage, application herbicide amount 320 g/ha
Summary of the method: as §1

Zea mays = test: as above; settings: for b (Zea mays) effect on crop: application to foliage, application herbicide amount 320 g/ha
Summary of the method: as §1

[3] = test system: Echinochloa oryzacola Vasing.; test: Test Example 2: herbicidal activity, application during weed generation in submerged conditions; settings: Eighteenth Table; application herbicide amount 320 g/ha
Summary of the method: (§2)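 Mixed sowings in flooded alluvial soil (4 cm water), greenhouse 25-30 °C; emulsifiable concentrate diluted in water applied to the water surface at the 1-2 leaf stage, rate in g/ha. Effect scored three weeks later on a 0-5 scale (5 = ≥90% herbicidal ratio, 0 = ≤5%).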

Scirpus juncoides = test: as above; settings: Eighteenth Table; application herbicide amount 320 g/ha
Summary of the method: as §2

Monochoria vaginalis = test: as above; settings: Eighteenth Table; application herbicide amount 320 g/ha
Summary of the method: as §2

[4] = test system: Echinochloa crus-galli var. crus-galli; test: Test Example 4: herbicidal effect by application to foliage (diluvial soil, plastic box); settings: for H (Echinochloa crus-galli var. crus-galli) herbicidal effect: application to foliage, application herbicide amount 320 g/ha
Summary of the method: as §1

Veronica persica = test: as above; settings: for R (Veronica persica) herbicidal effect: application to foliage, application herbicide amount 320 g/ha
Summary of the method: as §1

Lolium multiflorum Lam. = test: as above; settings: for K (Lolium multiflorum Lam.) herbicidal effect: application to foliage, application herbicide amount 320 g/ha
Summary of the method: as §1

Galium spurium = test: as above; settings: for Q (Galium spurium) herbicidal effect: application to foliage, application herbicide amount 320 g/ha
Summary of the method: as §1

Avena fatua = test: as above; settings: for I (Avena fatua) herbicidal effect: application to foliage, application herbicide amount 320 g/ha
Summary of the method: as §1

Apera spica-venti. = test: as above; settings: for L (Apera spica-venti.) herbicidal effect: application to foliage, application herbicide amount 320 g/ha
Summary of the method: as §1

Abutilon theophrasti = test: as above; settings: for M (Abutilon theophrasti) herbicidal effect: application to foliage, application herbicide amount 320 g/ha
Summary of the method: as §1

Alopecurus myosuroides = test: as above; settings: for J (Alopecurus myosuroides) herbicidal effect: application to foliage, application herbicide amount 320 g/ha
Summary of the method: as §1

Setaria viridis = test: as above; settings: for G (Setaria viridis) herbicidal effect: application to foliage, application herbicide amount 320 g/ha
Summary of the method: as §1

Digitaria ciliaris = test: as above; settings: for F (Digitaria ciliaris) herbicidal effect: application to foliage, application herbicide amount 320 g/ha
Summary of the method: as §1

Chenopodium album = test: as above; settings: for O (Chenopodium album) herbicidal effect: application to foliage, application herbicide amount 320 g/ha
Summary of the method: as §1

[5] = Application herbicide amount 320 g/ha, effect on crop
[6] = Application herbicide amount 320 g/ha

Structure (SMILES)	A (Echinochloa oryzicola Vasing.) herbicidal ratio grade [3]	B (Scirpus juncoides) herbicidal ratio grade (Scirpus juncoides)	C (Monochoria vaginalis) herbicidal ratio grade (Monochoria vaginalis)	e (Triticum aestivum) effect on crop (Triticum aestivum)	d (directly sowed Oryza sativa) effect on crop [1]	c (Glycine max) effect on crop (Glycine max)	g (Brassica campestris L.) effect on crop (Brassica campestris L.)	f (Beta vulgaris ssp. vulgaris) effect on crop [2]	b (Zea mays) effect on crop (Zea mays)	H (Echinochloa crus-galli var. crus-galli) herbicidal effect [4]	R (Veronica persica) herbicidal effect (Veronica persica)	K (Lolium multiflorum Lam.) herbicidal effect (Lolium multiflorum Lam.)	Q (Galium spurium) herbicidal effect (Galium spurium)	I (Avena fatua) herbicidal effect (Avena fatua)	L (Apera spica-venti.) herbicidal effect (Apera spica-venti.)	M (Abutilon theophrasti) herbicidal effect (Abutilon theophrasti)	J (Alopecurus myosuroides) herbicidal effect (Alopecurus myosuroides)	G (Setaria viridis) herbicidal effect (Setaria viridis)	F (Digitaria ciliaris) herbicidal effect (Digitaria ciliaris)	O (Chenopodium album) herbicidal effect (Chenopodium album)	also measured
Cc1cc(-c2nnc3c(C(=O)Nc4nnc(C)o4)ccc(C(F)(F)F)n23)n(C)n1 [1-056]	5 (Herbicidal ratio of 90% or more (almost completely withered))	4 (Herbicidal ratio of 70% or more and less than 90%)	4 (Herbicidal ratio of 70% or more and less than 90%)	–	–	–	–	–	–	–	–	–	–	–	–	–	–	–	–	–	e (Triticum aestivum; [5]): 1 (Herbicidal ratio of 5% or more and less than 20%); d [1, 5]: 4 (Herbicidal ratio of 70% or more and less than 90%); c (Glycine max; [5]): 4 (Herbicidal ratio of 70% or more and less than 90%); g (Brassica campestris L.; [5]): 5 (Herbicidal ratio of 90% or more (almost completely withered)); f [2, 5]: 5 (Herbicidal ratio of 90% or more (almost completely withered)); b (Zea mays; [5]): 4 (Herbicidal ratio of 70% or more and less than 90%); H [4, 6]: 5 (Herbicidal ratio of 90% or more (almost completely withered)); R (Veronica persica; [6]): 5 (Herbicidal ratio of 90% or more (almost completely withered)); K (Lolium multiflorum Lam.; [6]): 2 (Herbicidal ratio of 20% or more and less than 40%); Q (Galium spurium; [6]): 4 (Herbicidal ratio of 70% or more and less than 90%); I (Avena fatua; [6]): 3 (Herbicidal ratio of 40% or more and less than 70%); L (Apera spica-venti.; [6]): 3 (Herbicidal ratio of 40% or more and less than 70%); M (Abutilon theophrasti; [6]): 5 (Herbicidal ratio of 90% or more (almost completely withered)); J (Alopecurus myosuroides; [6]): 2 (Herbicidal ratio of 20% or more and less than 40%); G (Setaria viridis; [6]): 5 (Herbicidal ratio of 90% or more (almost completely withered)); F (Digitaria ciliaris; [6]): 5 (Herbicidal ratio of 90% or more (almost completely withered)); O (Chenopodium album; [6]): 5 (Herbicidal ratio of 90% or more (almost completely withered))
Cc1nnc(NC(=O)c2ccc(C(F)(F)F)n3c(CC(=O)OC(C)C)nnc23)o1 [1-049]	4 (Herbicidal ratio of 70% or more and less than 90%)	2 (Herbicidal ratio of 20% or more and less than 40%)	2 (Herbicidal ratio of 20% or more and less than 40%)	1 (Herbicidal ratio of 5% or more and less than 20%)	3 (Herbicidal ratio of 40% or more and less than 70%)	4 (Herbicidal ratio of 70% or more and less than 90%)	4 (Herbicidal ratio of 70% or more and less than 90%)	5 (Herbicidal ratio of 90% or more (almost completely withered))	0 (Herbicidal ratio of 5% or less (almost no effect))	5 (Herbicidal ratio of 90% or more (almost completely withered))	4 (Herbicidal ratio of 70% or more and less than 90%)	2 (Herbicidal ratio of 20% or more and less than 40%)	3 (Herbicidal ratio of 40% or more and less than 70%)	0 (Herbicidal ratio of 5% or less (almost no effect))	3 (Herbicidal ratio of 40% or more and less than 70%)	5 (Herbicidal ratio of 90% or more (almost completely withered))	2 (Herbicidal ratio of 20% or more and less than 40%)	4 (Herbicidal ratio of 70% or more and less than 90%)	5 (Herbicidal ratio of 90% or more (almost completely withered))	5 (Herbicidal ratio of 90% or more (almost completely withered))	–
Cc1nnc(NC(=O)c2ccc(C(F)(F)F)n3cnnc23)o1 [1-001]	4 (Herbicidal ratio of 70% or more and less than 90%)	4 (Herbicidal ratio of 70% or more and less than 90%)	2 (Herbicidal ratio of 20% or more and less than 40%)	1 (Herbicidal ratio of 5% or more and less than 20%)	3 (Herbicidal ratio of 40% or more and less than 70%)	0 (Herbicidal ratio of 5% or less (almost no effect))	4 (Herbicidal ratio of 70% or more and less than 90%)	4 (Herbicidal ratio of 70% or more and less than 90%)	0 (Herbicidal ratio of 5% or less (almost no effect))	4 (Herbicidal ratio of 70% or more and less than 90%)	4 (Herbicidal ratio of 70% or more and less than 90%)	1 (Herbicidal ratio of 5% or more and less than 20%)	4 (Herbicidal ratio of 70% or more and less than 90%)	1 (Herbicidal ratio of 5% or more and less than 20%)	1 (Herbicidal ratio of 5% or more and less than 20%)	3 (Herbicidal ratio of 40% or more and less than 70%)	1 (Herbicidal ratio of 5% or more and less than 20%)	3 (Herbicidal ratio of 40% or more and less than 70%)	4 (Herbicidal ratio of 70% or more and less than 90%)	5 (Herbicidal ratio of 90% or more (almost completely withered))	–
